Test results published in US12097380B2, “Shielding of magnetic field as a medical therapy” (Micromed Scientia, Inc., priority 2012, dated 2024).

Legend:
[1] = system: non-small cell lung cancer cells A549; assay: In vitro growth of A549 cells in the presence of Taxol, iron shielding box vs plastic box (CCK-8 cell viability); format: cell-based, human
Protocol: (§1) The surrounding magnetic field shielding device and the plastic box used in this experiment were the same as those described in Example 2 above.
The human non-small cell lung cancer cells (A549) and human breast cancer cell (MCF-7) were supplied by the Cell Resource Center, Shanghai Institute of Life Sciences. The cells were maintained in a monolayer and were grown at 37° C. in an atmosphere of 5% CO2 with moisture in RPMI 1640 medium, supplemented with 10% fetal bovine serum. The medium also contained […] Penicillin and 100 mg/L Streptomycin. The cells at exponentially growing phase were used in the experiments.
(§2) The human non-small cell lung cancer cells (A549) or the human breast cancer cells (MCF-7) were grown in 96 well plates. The growth of non-small cell lung cancer cell line and the breast cancer cell line were investigated while being exposed to environmental magnetic field or being shielded from environmental magnetic field. Each cell culture was separated into three equal portions. The first sample was cultured in a surrounding magnetic field shielded box (an iron shielding box). The second sample was cultured in a plastic box, and the third sample was cultured in the absence of any surrounding box as a control. All of the samples were placed in the incubator with an atmosphere containing 5% CO2 and at a temperature of 37° C. The cell growth rates were examined periodically by harvesting the cells and determining cell viability using the cell counting kit-8 and microplate reader RT-6000. The experiments were continued for four to seven days depending on the cell types and the respective growth rates.
(§3) Cell count kit-8 (CCK-8) ([…] manufactured by Dojindo Molecular Technologies, Inc.) allows sensitive colorimetric assays for the determination of cell viability. […]

[2] = system: Taxol-resistant non-small cell lung cancer cells A549-T24; assay: In vitro growth of Taxol-resistant A549-T24 cells in the presence of Taxol, iron shielding box vs plastic box (CCK-8 cell viability); format: cell-based, human; conditions: for growth of A549-T24 in the iron shielding box slower than the control cultured in a plastic box: 12 nM Taxol in medium, 37° C., shielded vs unshielded
Excerpt: as §1
The protocol described by Kavallaris et al., J. Clin. Invest., 100(5): 1282-1293 (1997)^[13] was followed to culture taxol-resistant human lung carcinoma cells A549. The human non-small cell lung cancer cells A549 were maintained in RPMI 1640 containing 10% FBS and 1% Penicillin-Streptomycin. For inducing its resistance to Taxol, in a stepwise manner, Taxol was added into the culture medium with periodically increasing its concentration. A549 cells were initially exposed to 3 nM of Taxol, and once normal growth was achieved, cells were maintained at this concentration. In two weeks, the Taxol dose was increased by two-fold, such as 3 nM, 6 nM, 12 nM, until the final drug concentration of 24 nM was achieved to develop Taxol-resistant cells. The obtained cells were maintained at a Taxol concentration of 24 nM. These Taxol-resistant cells were named as A549-T24.
as §2, with “The experiments were continued for four to seven days depending on the cell types and the respective growth rates.” left out
as §3

[3] = system: most sensitive non-small lung cancer cell; conditions: as reported by Georgiadis et al. 1997, read-out: IC50 to Taxol; cited from earlier work

IC50 ([1]; Homo sapiens, 120 h, A549, under shielding of environmental magnetic field, 5 days, read-out: IC50 of Taxol (drug concentration at which cell growth is suppressed to 50%)): ~5 nM
IC50 ([2]; Homo sapiens, 96 h, A549-T24, under shielding of surrounding magnetic field, day 4): ~10 nM
SMILES: CC(=O)O[C@H]1C(=O)[C@@]2(C)[C@H]([C@H](OC(=O)c3ccccc3)[C@]3(O)C[C@H](OC(=O)[C@H](O)[C@@H](NC(=O)c4ccccc4)c4ccccc4)C(C)=C1C3(C)C)[C@]1(OC(C)=O)CO[C@@H]1C[C@@H]2O [Taxol, Paclitaxel]
growth of A549 in the iron shielding box slower than the control cultured in a plastic box ([1]; 5 nM Taxol in medium, 37° C., 3 days of incubation, shielded vs unshielded, P<0.001): 16.3%
growth of A549 in the iron shielding box decreased in comparison to the control cultured in a plastic box ([1]; 5 nM Taxol in medium, 37° C., 5 days of incubation, shielded vs unshielded, P<0.0005): 47.3%
growth of A549-T24 in the iron shielding box slower than the control cultured in a plastic box ([2]; day 3, P<0.01): 11.2%
growth of A549-T24 in the iron shielding box slower than the control cultured in a plastic box ([2]; day 4, P<0.001): 10.7%
IC50 [3]: 9.9 nM
